Measured values: patent US20120059021A1, “COMPOSITIONS AND METHODS FOR TREATING CANCER AND METHODS FOR PREDICTING A RESPONSE TO SUCH TREATMENTS” (UNIVERSITY OF WASHINGTON, priority 2008, published 2012)

Key:
[1] = test system: AXIN1; assay: qRT-PCR of AXIN1 mRNA in A375 cells; format: cell-based, human; conditions: A375, 2 μM PLX4720, 24 hours
Source text: (§1) RNA purification and qRT-PCR analysis. RNA was purified using the RNeasy kit following the manufacturer's protocol (Qiagen; Maryland, Md.). cDNA was synthesized using RevertAid™ M-MuLV Reverse Transcriptase (Fermentas; Ontario, CAN). Light Cycler FastStart DNA Master SYBR Green1 (Roche; Mannheim, Germany) was used for real-time PCR as previously described (53). Quantitative PCR results presented in the manuscript are averages of a minimum of three biologic replicates.

[2] = test system: human A375 melanoma cells; assay: Resazurin-based assay for cell viability
[3] = test system: COLO829; assay: qPCR of endogenous Wnt target gene AXIN2, COLO829; format: cell-based, human; conditions: WNT3A CM, 2 μM PLX4720, 24 hours
Source text: as §1

[4] = test system: A375; assay: Flow cytometry for active (cleaved) caspase-3, A375; format: cell-based, human
Method: Flow cytometry for Active Caspase-3. Cells were seeded in a 6-well dish at a density to achieve 90-100% confluence at harvest. 24 hours after seeding, cells were treated with the indicated conditions for the indicated amount of time. At the time of collection, supernatants were collected and pooled with trypsinized cells. Cells were fixed with 4% paraformaldehyde and permeabilized according to vendor's protocol for Cleaved Caspase-3 (Asp175) Antibody (AlexaFluor 488 Conjugate) (catalog #9669) (Cell Signaling, Beverly Mass.). The antibody was used at a final dilution of 1:100. Flow was performed on a BD FACSCanto H, and data analysed with FlowJo 8.8.6 (Tree Star) software. Experiments were performed with biological triplicates and data are representative of at least three independent experiments. For experiments involving siRNAs, cells were reverse transfected with 20 nM siRNA in 6-well dishes in triplicate with RNAiMax according to manufacturer's protocol. 48 hours following transfection, cells were treated with the indicated conditions for 24 hours and then harvested for analysis. Cells were harvested, stained, and analyzed as described above.

[5] = test system: human epidermal melanocytes (HEM); assay: qPCR of endogenous Wnt target gene AXIN2, human epidermal melanocytes (HEM); format: cell-based; conditions: WNT3A CM, 2 μM PLX4720, 24 hours
Source text: as §1

[6] = test system: A375 cells; assay: Immunoblot of apoptosis markers (cleaved caspase-3, cleaved PARP1) in A375 cells; format: cell-based, human
[7] = test system: ERK1/2 phosphorylation; assay: ERK1/2 phosphorylation in human epidermal melanocytes; format: cell-based; conditions: HEMs
Source text: Cell Lines. The human melanoma cell lines A375, A2058 and Me1624 were obtained from Cassian Yee (Fred Hutchinson Cancer Research Institute; Seattle, Wash.). The human melanoma cell lines COLO-829, SKMEL28, SKMEL5 were purchased from ATCC (Manassas, Va.). Human Epidermal Melanocytes, adult, lightly pigmented donor, (HEMa-LP) (C0245C) were purchased from Invitrogen (Carlsbad, Calif.). Stable BAR cell lines were generated as previously described (23). BAR luciferase cell lines were also infected with a lentivirus carrying Renilla luciferase driven by a constitutive EFlalpha promoter.
Cell Culture. The human melanoma lines A375, A2058 were cultured in DMEM supplemented with 5% FBS and 1% antibiotic. The human melanoma lines SK-MEL-5 and SK-MEL-28 were grown in EMEM supplemented with 10% FBS and 1% antibiotic. The human melanoma lines COLO-829 and MEL-624 were grown in RPMI supplemented with 10% FBS and 1% antibiotic HEMa-LP cells were cultured in medium 254 supplemented with 1% HMGS and 1% antibiotic (Invitrogen Carlsbad, Calif.). Synthetic siRNAs were transfected into cultured cells at a final concentration of 20 nM using RNAiMAX (Invitrogen; Grand Island, N.Y.).

[8] = test system: MEL624; assay: qPCR of endogenous Wnt target gene AXIN2, MEL624; format: cell-based, human; conditions: WNT3A CM, 2 μM PLX4720, 24 hours
Source text: as §1

## CCCS(=O)(=O)Nc1ccc(F)c(C(=O)c2c[nH]c3ncc(Cl)cc23)c1F [PLX4720, N-[3-[(5-Chloro-1H-pyrrolo[2,3-b]pyridin-3-yl)carbonyl]-2,4-difluorophenyl]-1-propanesulfonamide]
[1]
  AXIN1 gene expression (mRNA): no transcriptional regulation of AXIN1 gene expression
[2]
  cell viability / proliferation (resazurin): further decreases cell viability
[3]
  SYNERGISTIC WNT ACTIVATION WITH PLX4720?: YES
[4]; A375, WNT3A CM plus 2 μM PLX4720, 24 hours
  increase in cleaved caspase-3: 5-20 fold
[4]; A375, single agent alone, 24 hours
  cleaved caspase-3: minimal increases in cleaved caspase-3
[4]; A375, WNT3A, 2 μM PLX4720, 24 hours
  SYNERGISTIC APOPTOSIS WITH WNT AND PLX4720?: YES
[5]
  AXIN2 transcript levels: did not exhibit any increase in AXIN2 transcript levels
[6]; A375, WNT3A and PLX4720 time course
  time at which cleaved caspase-3 was first detected: 12 to 16 h
[6]; A375, combined WNT3A and 2 μM PLX4720, 24 hours
  cleavage of the caspase-3 substrate PARP1: synergistic cleavage of the caspase-3 substrate, PARP1
[6]; A375, longer treatment with PLX4720, no exogenous WNT3A
  caspase3 activation: led to activation of caspase3
[7]
  ERK1/2 phosphorylation: no effect
[8]
  SYNERGISTIC WNT ACTIVATION WITH PLX4720?: YES
